Laboratory results published in US20190076482A1, “ENHANCED ORGANOID FORMATION AND INTESTINAL STEM CELL RENEWAL” (THE JOHNS HOPKINS UNIVERSITY, priority 2016, published 2019).

Key:
Hmga1 organoids = test: Wnt inhibitor treatment of Hmga1 organoids; type: cell-based, mouse
Excerpt: (§1) To better define the role of Hmga1 in regulating Wnt signaling, we cultured Hmga1 organoids in the absence of the Wnt receptor agonist, R-spondin 1 (R-spo1), which is essential for organoid formation in this culture system. R-spo1 is secreted by intestinal stromal cells and binds to the Lgr5 receptor to activate Wnt signaling. The inventors discovered a dramatic difference in the response of Hmga1 organoids to the absence of R-spo1 as compared to the WT controls: Hmga1 organoids continued to survive and proliferate after 2 weeks, while the WT organoids lost their 3D structural organization and ultimately died by day 5 (FIG. 9). […] To further test the link between Hmga1 and Wnt, we treated organoids with the Wnt inhibitors, C59 and IWP-2, both of which block Wnt-mediated transcription and cell proliferation by inhibiting porcupine (PORCN), a protein required for Wnt palmitoylation, secretion, and biological activity. […] The blunted response of Hmga1 organoids to Wnt inhibition further highlights the ability of Hmga1 to amplify Wnt signaling to maintain and support ISCs.
Organoid culture and replating assay. Mouse organoids were established and maintained from isolated crypts of the proximal small intestine as described previously^1-7. […]

WT organoids = test: Wnt inhibitor treatment of WT control organoids; type: cell-based, mouse; settings: for bud formation: controls
Excerpt: as §1
Organoid culture and replating assay. Mouse organoids were established and maintained from isolated crypts of the proximal small intestine as described previously^1-7. The basic culture medium (advanced Dulbecco's modified Eagle's medium/F12 supplemented with penicillin/streptomycin, 10 mmol/l HEPES, 13 Glutamax, 13 B27 [all from Life Technologies], and 1 mmol/l N-acetylcysteine [Sigma]) was supplemented with 50 ng/ml murine recombinant EGF (Peprotech), R-spondin 1 (1 μg/ml), and Noggin (10 ng/ml). Wnt inhibitors C59 and IWP-2 are commercially available (Abcam). Conditioned media was produced using HEK293T cells stably transfected with HA-mouse Rspo1-Fc (a gift from Calvin Kuo, Stanford University). Advanced DMEM/F12 supplemented with penicillin/streptomycin, 10 mmol/1 HEPES, and 13 Glutamax was conditioned for 1 week. For the replating assay, an equal number of organoids from each model were mechanically dispersed with a 10 mL pipet after 3-5 days in culture and replated using the conditions described above.

Structure (SMILES) | organoid survival (Hmga1 organoids; up to 2μM of C59 (FIG. 4f)) | organoid proliferation (WT organoids; WT controls, exposure to as little as 0.5 μM (FIG. 4f)) | organoid survival and bud formation (Hmga1 organoids; 1 μM of IWP-2 (FIG. 4f)) | bud formation (WT organoids; 0.5 μM (FIG. 4f)) | bud formation (WT organoids; 1 μM IWP-2 (FIG. 4f))
Cc1cc(-c2ccc(CC(=O)Nc3ccc(-c4cccnc4)cc3)cc2)ccn1 [C59] | able to survive | failed to proliferate | – | – | –
Cc1ccc2nc(NC(=O)CSc3nc4c(c(=O)n3-c3ccccc3)SCC4)sc2c1 [IWP-2] | – | – | survive and form buds | few buds | no buds
